Reference: the NIST ThermoML archive (doi:10.1021/je800583r)

Conditions: 101.33 kPa, Liquid

CCC1COC(=O)O1 (configuration not stated) [1,2-butylene carbonate]
Conditions	mass density [kg/m3]
283 K	1155.2
293.1 K	1146.6
295.1 K	1144.9
297.1 K	1143.3
299.1 K	1141.7
301.1 K	1140.1
303.1 K	1138.6
